Results taken from US7557268B1, “Promoter for expression of a gene and response to infection or wounding” (priority 1999, dated 2009).

Test system: pAG2339 promoter deletion (gus reporter) in PR8-2, PR8-3, PR8-12
Assay type: cell-based, tobacco

O=C(O)c1ccccc1O [SA, salicylic acid]
change of reporter gene activity (in words): no significant change
